Laboratory results as given in patent US8362038B2, “1-isopropyl-2-oxo-1,2-dihydropyridine-3-carboxamide derivatives having 5-HT4 receptor agonistic activity” (Pfizer Inc., priority 2004, dated 2013).
Where a name gives a salt, the structure may show the parent alone.

How the values were obtained:
Caco-2 cells = assay: Caco-2 permeability; format: in vitro ADME
Experimental: (§1) Caco-2 permeability was measured according to the method described in Shiyin Yee, Pharmaceutical Research, 763 (1997).
(§2) Caco-2 cells were grown on filter supports (Falcon HTS multiwell insert system) for 14 days. Culture medium was removed from both the apical and basolateral compartments and the monolayers were preincubated with pre-warmed 0.3 ml apical buffer and 1.0 ml basolateral buffer for 0.5 hour at 37° C. in a shaker water bath at 50 cycles/min. The apical buffer consisted of Hanks Balanced Salt Solution, 25 mM D-glucose monohydrate, 20 mM MES Biological Buffer, 1.25 mM CaCl2 and 0.5 mM MgCl2 (pH 6.5). The basolateral buffer consisted of Hanks Balanced Salt Solution, 25 mM D-glucose monohydrate, 20 mM HEPES Biological Buffer, 1.25 mM CaCl2 and 0.5 mM MgCl2 (pH 7.4). At the end of the preincubation, the media was removed and test compound solution (10 μM) in buffer was added to the apical compartment. The inserts were moved to wells containing fresh basolateral buffer at 1 hr. Drug concentration in the buffer was measured by LC/MS analysis.
(§3) Flux rate (F, mass/time) was calculated from the slope of cumulative appearance of substrate on the receiver side and apparent permeability coefficient (Papp) was calculated from the following equation. Papp(cm/sec)=(F*VD)/(SA*MD)
(§4) where SA is surface area for transport (0.3 cm^2), VD is the donor volume (0.3 ml), MD is the total amount of drug on the donor side at t=0. All data represent the mean of 2 inserts. Monolayer integrity was determined by Lucifer Yellow transport.

Caco-2 permeability = format: in vitro ADME; settings: human, Caco-2; apical pH 6.5 to basolateral pH 7.4, 10 μM, mean of 2 inserts; read-out: Caco2 Permeability [Papp]
Experimental: as §1, §2, §3, §4

Human 5-HT4(d) = molecular target: T1, Human 5-HT4(d) (Homo sapiens, UniProt Q13639); assay: Human 5-HT4 binding ([3H]-GR113808 displacement, SPA); settings: for Ki: membranes of human 5-HT4(d) transfected HEK293 cells, [3H]-GR113808 0.2 nM
T1 construct: expressed in transfected cells; host or cells: HEK293
T1 sequence (Q13639 1-360 isoform Q13639-3): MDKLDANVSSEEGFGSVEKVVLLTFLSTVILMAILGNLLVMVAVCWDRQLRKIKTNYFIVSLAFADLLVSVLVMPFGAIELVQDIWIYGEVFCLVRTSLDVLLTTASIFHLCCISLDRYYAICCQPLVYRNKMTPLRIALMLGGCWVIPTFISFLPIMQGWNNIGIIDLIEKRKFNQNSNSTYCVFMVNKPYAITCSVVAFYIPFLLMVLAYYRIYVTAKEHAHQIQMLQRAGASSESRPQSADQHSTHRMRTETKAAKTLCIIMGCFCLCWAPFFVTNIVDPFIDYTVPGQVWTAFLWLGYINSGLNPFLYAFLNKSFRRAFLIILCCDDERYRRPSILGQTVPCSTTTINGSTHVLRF
Experimental: The 5-HT4 receptor binding affinities of the compounds of this invention are determined by the following procedures.
Human 5-HT4(d) transfected HEK293 cells were prepared and grown in-house. The collected cells were suspended in 50 mM HEPES (pH 7.4 at 4° C.) supplemented with protease inhibitor cocktail (Boehringer, 1:1000 dilution) and homogenized using a hand held Polytron PT 1200 disruptor set at full power for 30 sec on ice. The homogenates were centrifuged at 40,000×g at 4° C. for 30 min. The pellets were then resuspended in 50 mM HEPES (pH 7.4 at 4° C.) and centrifuged once more in the same manner. The final pellets were resuspended in an appropriate volume of 50 mM HEPES (pH 7.4 at 25° C.), homogenized, aliquoted and stored at −80° C. until use. An aliquot of membrane fractions was used for protein concentration determination using BCA protein assay kit (PIERCE) and ARVOsx plate reader (Wallac).
For the binding experiments, 25 μl of test compounds were incubated with 25 μl of [^3H]-GR113808 (Amersham, final 0.2 nM) and 150 μl of membrane homogenate and WGA-SPA beads (Amersham) suspension solutions (10 μg protein and 1 mg SPA beads/well) for 60 minutes at room temperature. Nonspecific binding was determined by 1 μM GR113808 (Tocris) at the final concentration. Incubation was terminated by centrifugation at 1000 rpm. Receptor-bound radioactivity was quantified by counting with MicroBeta plate counter (Wallac).

SMILES | melting point | also measured
CCCCN1CCC(CNC(=O)c2cc(Cl)c(N)n(C)c2=O)CC1 [Compound A] |  | permeability against caco2 membrane (in words) (Caco-2 cells): low permeability; Papp A→B at 10 μM (Caco-2 permeability): 0.2 ×10⁻⁶ cm/s; affinity / binding activity to 5-HT4 receptor (in words) (Human 5-HT4(d)): weak affinity; Ki (Human 5-HT4(d)): > 500 nM
CCc1c(Cl)cc(C(=O)NCC2CCN(CC3(O)CCOCC3)CC2)c(=O)n1C(C)C (as salt: salt) [Example 2, 5-Chloro-6-ethyl-N-({1-[(4-hydroxytetrahydro-2H-pyran-4-yl)methyl]piperidin-4-yl}methyl)-1-isopropyl-2-oxo-1,2-dihydropyridine-3-carboxamide] | 123 °C (dec.) | 
Cc1c(Cl)cc(C(=O)NCC2CCN(CC3(O)CCCCC3)CC2)c(=O)n1C(C)C [Example 7, 5-Chloro-N-({1-[(1-Hydroxycyclohexyl)Methyl]Piperidin-4-Yl}Methyl)-1-Isopropyl-6-Methyl-2-Oxo-1,2-Dihydropyridine-3-Carboxamide] | 187 °C (dec.) | 
Cc1cc(C(=O)NCC2CCN(CC3(O)CCOCC3)CC2)c(=O)n(C(C)C)c1C (as salt: salt) [Example 3, N-({1-[(4-Hydroxytetrahydro-2H-pyran-4-yl)methyl]piperidin-4-yl}methyl)-1-isopropyl-5,6-dimethyl-2-oxo-1,2-dihydropyridine-3-carboxamide] | 178 °C (dec.) | 
Cc1c(F)cc(C(=O)NCC2CCN(CC3(O)CCOCC3)CC2)c(=O)n1C(C)C [Example 5, 5-Fluoro-N-({1-[(4-hydroxytetrahydro-2H-pyran-4-yl)methyl]piperidin-4-yl}methyl)-1-isopropyl-6-methyl-2-oxo-1,2-dihydropyridine-3-carboxamide] | 133 °C (dec.) | 
Cc1c(Cl)cc(C(=O)NCC2CCN(CC3(O)CCOCC3)CC2)c(=O)n1C(C)C (as salt: hydrochloride) [Example 1, 5-Chloro-N-({1-[(4-hydroxytetrahydro-2H-pyran-4-yl)methyl]piperidin-4-yl}methyl)-1-isopropyl-6-methyl-2-oxo-1,2-dihydropyridine-3-carboxamide] | 283 °C (dec.) | 
Cc1c(Br)cc(C(=O)NCC2CCN(CC3(O)CCOCC3)CC2)c(=O)n1C(C)C (as salt: salt) [Example 4, 5-Bromo-N-({1-[(4-hydroxytetrahydro-2H-pyran-4-yl)methyl]piperidin-4-yl}methyl)-1-isopropyl-6-methyl-2-oxo-1,2-dihydropyridine-3-carboxamide] | 205 °C (dec.) | 
Cc1c(Cl)cc(C(=O)NCC2CCN(CC3(O)CCOCC3)CC2)c(=O)n1C(C)C [Example 1, 5-Chloro-N-({1-[(4-hydroxytetrahydro-2H-pyran-4-yl)methyl]piperidin-4-yl}methyl)-1-isopropyl-6-methyl-2-oxo-1,2-dihydropyridine-3-carboxamide] |  | Papp A→B at 10 μM (Caco-2 permeability): 5.3 ×10⁻⁶ cm/s; Ki (Human 5-HT4(d)): 10.9 nM
Cc1c(Cl)cc(C(=O)NCC2CCN(CC3CCCCC3)CC2)c(=O)n1C(C)C [Example 6, 5-Chloro-N-{[1-(cyclohexylmethyl)piperidin-4-yl]methyl}-1-isopropyl-6-methyl-2-oxo-1,2-dihydropyridine-3-carboxamide] | 168 °C (dec.) | 
